In the NIST ThermoML archive (doi:10.1016/j.fluid.2010.10.028):
± gives the expanded uncertainty stated by the source.

Experiment: xn = mol fraction of the nth substance listed
Conditions: Liquid, Vibrating tube method

CC(C)=O [acetone] + CCCCCCC
Conditions | mass density [kg/m3]
387.33 K, 39820 kPa, x1 = 0.7024 | 691.19 ± 1.3
387.33 K, 44790 kPa, x1 = 0.7024 | 696.6 ± 1.4
387.33 K, 44850 kPa, x1 = 0.801 | 707.68 ± 1.3
387.33 K, 44910 kPa, x1 = 0.4 | 722 ± 1.4
387.33 K, 44910 kPa, x1 = 0.8992 | 722 ± 1.3
387.33 K, 49890 kPa, x1 = 0.7024 | 701.8 ± 1.4
387.33 K, 54870 kPa, x1 = 0.4 | 732.14 ± 1.4
387.33 K, 54870 kPa, x1 = 0.8992 | 732.14 ± 1.4
387.33 K, 59840 kPa, x1 = 0.492 | 692.57 ± 1.4
387.33 K, 59880 kPa, x1 = 0.7024 | 711.17 ± 1.4
387.33 K, 69820 kPa, x1 = 0.801 | 731 ± 1.4
387.33 K, 69830 kPa, x1 = 0.4 | 745.58 ± 1.4
387.33 K, 69830 kPa, x1 = 0.8992 | 745.58 ± 1.4
387.33 K, 79900 kPa, x1 = 0.801 | 739.02 ± 1.5
387.33 K, 84880 kPa, x1 = 0.801 | 742.74 ± 1.5
387.33 K, 89860 kPa, x1 = 0.801 | 746.32 ± 1.5
387.33 K, 99770 kPa, x1 = 0.7024 | 741.29 ± 1.6
387.33 K, 99830 kPa, x1 = 0.801 | 753.17 ± 1.6
387.33 K, 114840 kPa, x1 = 0.801 | 762.65 ± 1.6
387.33 K, 124840 kPa, x1 = 0.801 | 768.53 ± 1.6
387.33 K, 129850 kPa, x1 = 0.801 | 771.37 ± 1.7
387.34 K, 1350 kPa, x1 = 0.492 | 613.12 ± 1.2
387.34 K, 14820 kPa, x1 = 0.7024 | 656.98 ± 1.2
387.34 K, 19850 kPa, x1 = 0.492 | 648.12 ± 1.3
387.34 K, 24830 kPa, x1 = 0.7024 | 672.45 ± 1.3
387.34 K, 24840 kPa, x1 = 0.492 | 655.23 ± 1.3
387.34 K, 29850 kPa, x1 = 0.492 | 661.75 ± 1.3
387.34 K, 34810 kPa, x1 = 0.7024 | 685.41 ± 1.3
387.34 K, 34840 kPa, x1 = 0.492 | 667.74 ± 1.3
387.34 K, 39870 kPa, x1 = 0.492 | 673.37 ± 1.4
387.34 K, 44860 kPa, x1 = 0.492 | 678.6 ± 1.4
387.34 K, 49850 kPa, x1 = 0.492 | 683.53 ± 1.4
387.34 K, 54850 kPa, x1 = 0.492 | 688.17 ± 1.4
387.34 K, 54880 kPa, x1 = 0.7024 | 706.61 ± 1.4
387.34 K, 64820 kPa, x1 = 0.492 | 696.75 ± 1.5
387.34 K, 64880 kPa, x1 = 0.7024 | 715.51 ± 1.4
387.34 K, 69860 kPa, x1 = 0.7024 | 719.63 ± 1.5
387.34 K, 69930 kPa, x1 = 0.492 | 700.84 ± 1.5
387.34 K, 74840 kPa, x1 = 0.7024 | 723.6 ± 1.5
387.34 K, 74900 kPa, x1 = 0.492 | 704.65 ± 1.5
387.34 K, 79840 kPa, x1 = 0.7024 | 727.41 ± 1.5
387.34 K, 79890 kPa, x1 = 0.492 | 708.31 ± 1.5
387.34 K, 84810 kPa, x1 = 0.7024 | 731.07 ± 1.5
387.34 K, 84890 kPa, x1 = 0.492 | 711.86 ± 1.6
387.34 K, 89810 kPa, x1 = 0.7024 | 734.6 ± 1.5
387.34 K, 89860 kPa, x1 = 0.492 | 715.24 ± 1.6
387.34 K, 94770 kPa, x1 = 0.7024 | 737.98 ± 1.6
387.34 K, 94840 kPa, x1 = 0.492 | 718.51 ± 1.6
387.34 K, 99820 kPa, x1 = 0.492 | 721.68 ± 1.6
387.34 K, 104740 kPa, x1 = 0.7024 | 744.46 ± 1.6
387.34 K, 104800 kPa, x1 = 0.492 | 724.73 ± 1.7
387.34 K, 109720 kPa, x1 = 0.7024 | 747.55 ± 1.6
387.34 K, 109770 kPa, x1 = 0.492 | 727.68 ± 1.7
387.34 K, 114800 kPa, x1 = 0.7024 | 750.59 ± 1.6
387.34 K, 114840 kPa, x1 = 0.492 | 730.61 ± 1.7
387.34 K, 119810 kPa, x1 = 0.7024 | 753.51 ± 1.7
387.34 K, 119850 kPa, x1 = 0.492 | 733.41 ± 1.7
387.34 K, 124820 kPa, x1 = 0.7024 | 756.37 ± 1.7
387.34 K, 124850 kPa, x1 = 0.492 | 736.14 ± 1.8
387.34 K, 129810 kPa, x1 = 0.7024 | 759.13 ± 1.7
387.34 K, 129840 kPa, x1 = 0.492 | 738.77 ± 1.8
397.26 K, 1500 kPa, x1 = 0.801 | 626.11 ± 1.2
397.26 K, 1680 kPa, x1 = 0.4 | 640.61 ± 1.2
397.26 K, 1680 kPa, x1 = 0.8992 | 640.61 ± 1.2
397.26 K, 5010 kPa, x1 = 0.4 | 649.41 ± 1.2
397.26 K, 5010 kPa, x1 = 0.8992 | 649.41 ± 1.2
397.26 K, 14870 kPa, x1 = 0.611 | 638.19 ± 1.2
397.26 K, 14980 kPa, x1 = 0.4 | 670.71 ± 1.3
397.26 K, 14980 kPa, x1 = 0.8992 | 670.71 ± 1.2
397.26 K, 19970 kPa, x1 = 0.4 | 679.48 ± 1.3
397.26 K, 19970 kPa, x1 = 0.8992 | 679.48 ± 1.3
397.26 K, 29940 kPa, x1 = 0.4 | 694.66 ± 1.3
397.26 K, 29940 kPa, x1 = 0.8992 | 694.66 ± 1.3
397.26 K, 44910 kPa, x1 = 0.4 | 713.39 ± 1.4
397.26 K, 44910 kPa, x1 = 0.8992 | 713.39 ± 1.3
397.26 K, 49900 kPa, x1 = 0.4 | 718.87 ± 1.4
397.26 K, 49900 kPa, x1 = 0.8992 | 718.87 ± 1.4
397.26 K, 54890 kPa, x1 = 0.4 | 724.02 ± 1.4
397.26 K, 54890 kPa, x1 = 0.8992 | 724.02 ± 1.4
397.26 K, 59880 kPa, x1 = 0.4 | 728.9 ± 1.4
397.26 K, 59880 kPa, x1 = 0.8992 | 728.9 ± 1.4
397.26 K, 64940 kPa, x1 = 0.611 | 699.14 ± 1.5
397.26 K, 69840 kPa, x1 = 0.4 | 738.01 ± 1.4
397.26 K, 69840 kPa, x1 = 0.8992 | 738.01 ± 1.4
397.26 K, 74820 kPa, x1 = 0.4 | 742.26 ± 1.5
397.26 K, 74820 kPa, x1 = 0.8992 | 742.26 ± 1.4
397.26 K, 84790 kPa, x1 = 0.4 | 750.27 ± 1.5
397.26 K, 84790 kPa, x1 = 0.8992 | 750.27 ± 1.5
397.26 K, 89770 kPa, x1 = 0.4 | 754.07 ± 1.5
397.26 K, 89770 kPa, x1 = 0.8992 | 754.07 ± 1.5
397.26 K, 104690 kPa, x1 = 0.4 | 764.67 ± 1.6
